# Source: patent US9986723B2, “Screen and use of therapeutics for pancreatic ductal adenocarcinoma” (The Board of Regents of the University of Texas System, priority 2014, dated 2018)
# Key:
# [1] = tested on: pancreatic ductal adenocarcinoma (PDA) metastases; assay: Metastatic burden in five murine models of PDA under low dose warfarin; assay type: in vivo, mouse; conditions: four of the five PDA models; warfarin 0.5-1 mg/L drinking water
# Experimental: (FIG. 23A) Primary tumor burden after therapy with warfarin. Therapy was initiated when implanted tumors were visible by ultrasound (˜10 mm^3) and consisted of control (normal drinking water) or warfarin, administered in the drinking water at 0.5 mg/L (immunocompetent mice: Pan02 (n=4, control; 3, warfarin), KIC (n=10, control; 8, warfarin)) or 1 mg/L (Panc-1 (n=10, control; 8, warfarin), AsPC-1 (n=8, control; 6, warfarin), Capan-1 (n=10, control; 7, warfarin)) and continued for 2-4 weeks until control mice were moribund. Therapy in KIC mice was initiated at 3 weeks of age and continued for 4 weeks. (FIG. 23B) Metastases were determined grossly upon sacrifice and confirmed by histological evaluation of the liver. […] Incidence of metastasis is also indicated. […] Tumor volume determined by serial ultrasound. […] Therapy with mAb 10C9 (250 μg 2×/week) was initiated when tumors were established as above and persisted for 4 weeks. […] Error bars indicate s.e.m.
# Animal studies. […] Mice with established tumors, as determined by sonography were randomized to receive normal drinking water or water containing 1 mg/L (˜3.0 μM) warfarin for experiments in immunocompromised mice and 0.5 mg/L (˜1.5 μM) in experiments in immunocompetent animals with or without gemcitabine 25 mg/kg twice weekly depending on experimental design.
# [2] = tested on: primary PDA cells; assay: Rgs16::GFP PDA primary cell culture, live cell counts after 24 hr drug treatment; assay type: cell-based, mouse; conditions: 24 hr, gemcitabine 10 μM, BGB324 or warfarin 1 or 10 μM
# Experimental: Cell proliferation counts of primary PDA culture after 24 hr treatment with (FIG. 20A) gemcitabine (purple round); (FIG. 20B) BGB324 (green round); (FIG. 20C) warfarin (blue round); or (FIG. 20D) BGB324 with warfarin (green or blue round) at the indicated concentrations. PDA primary cells were plated at equal density (black open circle) at the start. Next day, cells were treated with drugs (D, red font) for 24 hr (red line). Approximate cell number at the start of drug treatment was obtained from another plate with equal density (red open circle). At the end of treatment, cells in each group were counted and subsequent passages started with cells plated at equal density (grey asterisk). Drug treated groups were allowed to grow without drug selection thereafter. Control cells (Ctrl) on separate plates were grown without drug and counted at the end of each passage (black open circle). PDA live cell numbers were obtained via counts using a hemocytometer after 2% Trypan blue staining to distinguish between living and dead cells under an inverted microscope with 10× objective. Statistical significances are based on comparison of drug-treated cell counts to Ctrl. […] Statistical analyses were obtained by comparing counts of drug-treated cells to Ctrl via unpaired and two-tailed Student's t-test. *, p<0.05; **, p<0.01; ***, p<0.001; ****, p<0.0001. Asterisks match the color of the comparison group.
# Rgs16::GFP PDA primary cell culture. Primary Rgs16::GFP PDA cells were harvested from 6-week-old KIC mice. Cells were grown in 25 mM Glucose DMEM (HyClone) with 10% FBS (Serum Source International), penicillin and streptomycin (Life Technologies) on rat tail collagen typel (BD Biosciences) coated plates (0.5 μg/cm^2) in a humidified incubator at 37° C. and 5% CO2. Cells reaching confluency were washed twice with PBS (HyClone) and lifted with 0.05% Trypsin-EDTA (HyClone) treatment up to 10 min in the incubator. For drug tests in FIGS. 20A-D, primary PDA cells were incubated with gemcitabine (10 μM dissolved in PBS), warfarin (1 μM or 10 μM dissolved in water), BGB324 (1 μM or 10 μM dissolved in DMSO) or warfarin and BGB324 together for 24 hrs in 37° C. incubator. PDA live cell numbers were obtained via counts using a hemocytometer following 2% trypan blue staining to distinguish dead cells under an inverted microscope.
# [3] = tested on: Mia PaCa-2 cells; assay: Mesenchymal/epithelial markers by ICC; assay type: cell-based, human; conditions: warfarin, in vitro
# Experimental: FIGS. 31A-B. Maintenance of mesenchymal phenotype is Axl dependent and inhibited by warfarin. (FIGS. 31A-B) Mia PaCa-2 cells were grown in 1% serum containing media the absence (Control) or presence of warfarin (2 μM) overnight. Cells were assessed for expression of phosphorylated Axl, nuclear Zeb1 (FIG. 31A) and vimentin and E-cadherin (FIG. 31B) by ICC. […] (FIG. 31B) Representative images of Vimentin and E-Cadherin expression are shown, total magnification 400×. Images were analyzed using Elements software. Welch's t-test*, p<0.05; **, p<0.01 vs control.
# Signaling and functional assays. Cells were grown to confluence in […] or 4 well chamber slides and treated overnight with low serum (1-2%) media+/−warfarin (2 μM) or 10C9 (1.1 μM, 168 μg/ml) overnight. Cells were subsequently analyzed by western blot or immunocytochemsitry (ICC).
# [4] = tested on: Gas6; assay: Gas6 γ-carboxylation in conditioned media of HEK293 cells expressing recombinant Gas6 (immunoblot); assay type: cell-based; conditions: Vitamin K + warfarin, in vitro
# Experimental: (FIG. 24A) HEK293 cells engineered to stably express recombinant Gas6 were grown in the presence of Vitamin K or Vitamin K+warfarin. Gas6 levels and γ-carboxylation were assayed by immunoblotting conditioned media. Conditioned media from untransfected HEK293 cells was used as a negative control. (FIG. 24B) Panc1 cells were grown overnight in media with 1% serum with no additions (NT), warfarin (2 μM) or BGB324 (2 μM). Lysates were probed for total Axl (tAxl) and phosphorylated Axl (pAxl). (FIG. 24C) Panc1 cells were grown in the presence of control media, Vitamin K, warfarin or warfarin+Vitamin K. The level of phosphorylated Axl (pAXL, red) was determined by immunofluorescence. (FIG. 24D) Panc1 cells were grown overnight in media with 1% serum with no additions (control), warfarin (1 μM), Gas6 (1.3 nM) or Gas6+warfarin. Lysates were probed for phosphorylated Akt (pAkt) and actin. (FIG. 24E) Lysates from Panc1 tumors harvested from mice treated with control or warfarin were probed for expression of tAxl, pAxl, actin, pAKT, tAKT, and cleaved Parp. (FIG. 24F) The effect of warfarin on cell migration was assessed by a ‘scratch’ assay. Monolayers of the indicted cells were wounded with a pipet tip. The cells were incubated in media containing 2% serum+/−warfarin (2 μM) or media containing 2% serum+Gas6 (1.3 nM)+/−warfarin.
smiles,measurement,setting,value
CC(=O)CC(c1ccccc1)c1c(O)c2ccccc2oc1=O (racemic) [Warfarin],metastatic burden,[1],consistently and potently inhibited metastatic burden
same,effect on cell viability and proliferation,[2],little or no effect on cell growth
same,effect on cell viability and proliferation,[2]; listed as warfarin,no effect
same,expression of the epithelial marker E-cadherin,[3],elevating
same,"pAxl levels, surface Axl expression, Zeb1 and vimentin",[3],reduced
same,γ-carboxylation of Gas6,[4],prevented
